Values quoted from earlier work as cited in US20220023398A1, “COMPOSITIONS AND METHODS FOR TREATING THYROID DISEASE” (Script Essentials, LLC, priority 2015, published 2022).

How the values were obtained:
[1] = supplementation, even in selenium sufficient patients
[2] = after oral supplementation
[3] = participants with low T3, normal T4

| SMILES | thyroid peroxidase (TPO) antibody levels in the blood [1] | TSH [2, 3] | reverse T3 (rT3) [2, 3] | levels of T3 ([2]; participants with low T3, normal T4, mild to moderate zinc deficiency) |
| --- | --- | --- | --- | --- |
| [Se] [selenium] | reduced |  |  |  |
| O=S(=O)([O-])[O-].[Zn+2] [zinc sulfate] |  | normalized | decreased | normalized |
